Tested on: Caco-2 cells
Assay: Uptake by Caco-2 cell monolayer (fluorescence microscopy of DOX)
Type: cell-based
Details: Caco-2 monolayer, 17.2 μm, 10 min incubation
Protocol: To investigate the cellular uptake of the released DOX from CN-DOX-IO by the small intestine in vitro, the monolayer of Caco-2 cells was incubated with CN-DOX-IO at a dosage of 17.2 μm for different lengths of time (10, 30 and 60 min). For comparison, cells incubated with DOX-IO and DOX were examined as controls. The intracellular accumulation of DOX was examined by the fluorescent microscope utilizing the fluorescence of DOX.

Structure (SMILES): COc1cccc2c1C(=O)c1c(O)c3c(c(O)c1C2=O)C[C@@](O)(C(=O)CO)C[C@@H]3O[C@H]1C[C@H](N)[C@H](O)[C@H](C)O1 [free DOX, doxorubicin]
- intracellular localisation of DOX fluorescence signal: observed in the nucleus

From patent US10537531B2, “Casein coated drug-loaded iron oxide nanoparticles” (Emory University, priority 2014, dated 2020)
